Literature values, collected in patent publication US20200093783A1, “Preparation and Anti-HepG2 Application for Urushiol-Based pH Response Micelle Encapsulating Paclitaxel” (Nanjing Zhongsen Biological Technology Co., Ltd., priority 2019, published 2020).

Test system: most of tumor cells
Settings: background statement

Substance: urushiol
- IC50 (50% inhibiting concentration): 4 µg/mL
